Measured values reported in patent US6737383B1, “Herbicidal oxadiazolidines” (priority 1999, dated 2004).

Legend:
morningglory = assay: Test B pre/postemergence morningglory; format: in vivo, Ipomoea hederacea
Procedure, shortened: (§1)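 Herbicidal effect was estimated by eye on a ten-point control scale after plants spent twelve to sixteen days in a greenhouse following soil or foliar treatment. Foliar sprays targeted plants at one to four leaves; all doses were formulated in a non-phytotoxic solvent with surfactant.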

giant foxtail = assay: Test B pre/postemergence giant foxtail; format: in vivo, Setaria faberii
Procedure, shortened: as §1

rape = assay: Test B pre/postemergence rape; format: in vivo, Brassica napus
Procedure, shortened: as §1

crabgrass = assay: Test B pre/postemergence crabgrass; format: in vivo, Digitaria sanguinalis
Procedure, shortened: as §1

purple nutsedge = assay: Test B pre/postemergence purple nutsedge; format: in vivo, Cyperus rotundus
Procedure, shortened: as §1

velvetleaf = assay: Test B pre/postemergence velvetleaf; format: in vivo, Abutilon theophrasti
Procedure, shortened: as §1

pigweed = assay: Test B pre/postemergence pigweed; format: in vivo, Amaranthus retroflexus
Procedure, shortened: as §1

soybean = assay: Test B pre/postemergence soybean; format: in vivo, Glycine max
Procedure, shortened: as §1

corn = assay: Test B pre/postemergence corn; format: in vivo, Zea mays
Procedure, shortened: as §1

duck salad = assay: Test B flood test duck salad; format: in vivo, Heteranthera limosa
Procedure, shortened: (§2)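 Flood test on plants grown to the 2-leaf stage; treated plants kept in greenhouse twelve to sixteen days, then visually rated against controls on a 0 (no effect) to 10 (complete control) scale.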

sugar beet = assay: Test B pre/postemergence sugar beet; format: in vivo, Beta vulgaris
Procedure, shortened: as §1

wild oat = assay: Test B pre/postemergence wild oat; format: in vivo, Avena fatua
Procedure, shortened: as §1

smallflower flatsedge = assay: Test B flood test smallflower flatsedge; format: in vivo, Cyperus difformis
Procedure, shortened: as §2

rice = assay: Test B flood test rice; format: in vivo, Oryza sativa; conditions: Rate 500 g/ha, Pre-emergence section of Table B; 0 to 10 scale (0 no effect, 10 complete control)
Procedure, shortened: as §2

wheat = assay: Test B pre/postemergence wheat; format: in vivo, Triticum aestivum
Procedure, shortened: as §1

cocklebur = assay: Test B pre/postemergence cocklebur; format: in vivo, Xanthium strumarium
Procedure, shortened: as §1

[1] = Postemergence, Rate 62 g/ha, scale of 0 to 10, 0 is no effect, 10 is complete control
[2] = Postemergence, Rate 125 g/ha, scale 0 to 10, 0 is no effect, 10 is complete control
[3] = Postemergence, Rate 500 g/ha, scale of 0 to 10 where 0 is no effect and 10 is complete control
[4] = Preemergence, Rate 62 g/ha, scale 0 to 10 (0 no effect, 10 complete control)
[5] = Preemergence, Rate 125 g/ha, scale 0 to 10, 0 is no effect, 10 is complete control
[6] = Preemergence, Rate 500 g/ha, scale of 0 to 10 where 0 is no effect and 10 is complete control
[7] = Rate 250 g/ha, Postemergence, scale of 0 to 10 where 0 is no effect and 10 is complete control
[8] = Rate 62 g/ha, flood test species, Pre-emergence, visual evaluation after twelve to sixteen days
[9] = Rate 125 g/ha, under heading Pre-emergence, flood test species, visual evaluation after twelve to sixteen days
[10] = Rate 250 g/ha, Pre-emergence (flood test species), scale 0 to 10, 0 is no effect, 10 is complete control
[11] = Rate 500 g/ha, Pre-emergence section of Table B, 0 to 10 scale (0 no effect, 10 complete control)

## CCCCCCn1c(=O)on(C(=O)N(c2ccccc2)C(C)C)c1=O [Compound 558]
morningglory; [1]
  Morningglory plant response rating: 10
morningglory; [2]
  Morningglory plant response rating: 10
morningglory; [3]
  Plant response rating, Morningglory: 10
morningglory; [4]
  Morningglory plant response rating: 0
morningglory; [5]
  Morningglory plant response rating: 0
morningglory; Preemergence, Rate 250 g/ha
  Morningglory plant response rating (0 to 10 scale): 0
morningglory; [6]
  Morningglory plant response rating: 0
morningglory; [7]
  Plant response rating, Morningglory: 10
Giant foxtail; [1]
  Giant foxtail plant response rating: 2
Giant foxtail; [2]
  Giant foxtail plant response rating: 2
Giant foxtail; [3]
  Plant response rating, Giant foxtail: 8
Giant foxtail; [4]
  Giant foxtail plant response rating: 8
Giant foxtail; [5]
  Giant foxtail plant response rating: 9
Giant foxtail; Preemergence, Rate 250 g/ha
  Giant foxtail plant response rating (0 to 10 scale): 9
Giant foxtail; [6]
  Giant foxtail plant response rating: 10
Giant foxtail; [7]
  Plant response rating, Giant foxtail: 5
rape; [1]
  Rape plant response rating: 0
rape; [2]
  Rape plant response rating: 0
rape; [3]
  Plant response rating, Rape: 2
rape; [4]
  Rape plant response rating: 0
rape; [5]
  Rape plant response rating: 0
rape; Preemergence, Rate 250 g/ha
  Rape plant response rating (0 to 10 scale): 2
rape; [6]
  Rape plant response rating: 2
rape; [7]
  Plant response rating, Rape: 0
crabgrass; [1]
  Crabgrass plant response rating: 0
crabgrass; [2]
  Crabgrass plant response rating: 0
crabgrass; [3]
  Plant response rating, Crabgrass: 8
crabgrass; [4]
  Crabgrass plant response rating: 8
crabgrass; [5]
  Crabgrass plant response rating: 9
crabgrass; Preemergence, Rate 250 g/ha
  Crabgrass plant response rating (0 to 10 scale): 9
crabgrass; [6]
  Crabgrass plant response rating: 9
crabgrass; [7]
  Plant response rating, Crabgrass: 8
Purple nutsedge; [1]
  Nutsedge plant response rating: 0
Purple nutsedge; [2]
  Nutsedge plant response rating: 0
Purple nutsedge; [3]
  Plant response rating, Nutsedge: 0
Purple nutsedge; [4]
  Nutsedge plant response rating: 0
Purple nutsedge; [5]
  Nutsedge plant response rating: 0
Purple nutsedge; Preemergence, Rate 250 g/ha
  Nutsedge plant response rating (0 to 10 scale): 0
Purple nutsedge; [6]
  Nutsedge plant response rating: 0
Purple nutsedge; [7]
  Plant response rating, Nutsedge: 0
velvetleaf; [1]
  Velvetleaf plant response rating: 0
velvetleaf; [3]
  Plant response rating, Velvetleaf: 2
velvetleaf; [4]
  Velvetleaf plant response rating: 0
velvetleaf; [5]
  Velvetleaf plant response rating: 0
velvetleaf; Preemergence, Rate 250 g/ha
  Velvetleaf plant response rating (0 to 10 scale): 0
velvetleaf; [6]
  Velvetleaf plant response rating: 0
velvetleaf; [7]
  Plant response rating, Velvetleaf: 0
pigweed; [1]
  Redroot pigweed plant response rating: 0
pigweed; [3]
  Plant response rating, Redroot pigweed: 0
pigweed; [4]
  Redroot pigweed plant response rating: 0
pigweed; [5]
  Redroot pigweed plant response rating: 0
pigweed; Preemergence, Rate 250 g/ha
  Redroot pigweed plant response rating (0 to 10 scale): 2
pigweed; [6]
  Redroot pigweed plant response rating: 2
pigweed; [7]
  Plant response rating, Redroot pigweed: 0
soybean; [1]
  Soybean plant response rating: 3
soybean; [3]
  Plant response rating, Soybean: 4
soybean; [4]
  Soybean plant response rating: 0
soybean; [5]
  Soybean plant response rating: 0
soybean; Preemergence, Rate 250 g/ha
  Soybean plant response rating (0 to 10 scale): 0
soybean; [6]
  Soybean plant response rating: 0
soybean; [7]
  Plant response rating, Soybean: 4
corn; [1]
  Corn plant response rating: 0
corn; [2]
  Corn plant response rating: 0
corn; [3]
  Plant response rating, Corn: 0
corn; [4]
  Corn plant response rating: 0
corn; [5]
  Corn plant response rating: 0
corn; Preemergence, Rate 250 g/ha
  Corn plant response rating (0 to 10 scale): 0
corn; [6]
  Corn plant response rating: 0
corn; [7]
  Plant response rating, Corn: 0
Duck salad; [8]
  Plant response rating, Ducksalad (0 to 10 scale, 0 is no effect, 10 is complete control): 0
Duck salad; [9]
  Ducksalad plant response rating (0 to 10 scale, 0 is no effect, 10 is complete control): 0
Duck salad; [10]
  Ducksalad plant response rating: 0
Duck salad; [11]
  Ducksalad plant response rating: 0
Sugar beet; [1]
  Sugarbeets plant response rating: 0
Sugar beet; [3]
  Plant response rating, Sugarbeets: 2
Sugar beet; [4]
  Sugarbeets plant response rating: 0
Sugar beet; [5]
  Sugarbeets plant response rating: 0
Sugar beet; Preemergence, Rate 250 g/ha
  Sugarbeets plant response rating (0 to 10 scale): 0
Sugar beet; [6]
  Sugarbeets plant response rating: 2
Sugar beet; [7]
  Plant response rating, Sugarbeets: 2
Wild oat; [1]
  Wild oats plant response rating: 0
Wild oat; [3]
  Plant response rating, Wild oats: 0
Wild oat; [4]
  Wild oats plant response rating: 0
Wild oat; [5]
  Wild oats plant response rating: 0
Wild oat; Preemergence, Rate 250 g/ha
  Wild oats plant response rating (0 to 10 scale): 0
Wild oat; [6]
  Wild oats plant response rating: 2
Wild oat; [7]
  Plant response rating, Wild oats: 0
Smallflower flatsedge; [8]
  Plant response rating, S. Flatsedge (0 to 10 scale, 0 is no effect, 10 is complete control): 0
Smallflower flatsedge; [9]
  S. Flatsedge plant response rating (0 to 10 scale, 0 is no effect, 10 is complete control): 0
Smallflower flatsedge; [10]
  S. Flatsedge plant response rating: 0
Smallflower flatsedge; [11]
  S. Flatsedge plant response rating: 0
rice
  Rice plant response rating: 0
wheat; [1]
  Wheat plant response rating: 0
wheat; [3]
  Plant response rating, Wheat: 0
wheat; [4]
  Wheat plant response rating: 0
wheat; [5]
  Wheat plant response rating: 0
wheat; Preemergence, Rate 250 g/ha
  Wheat plant response rating (0 to 10 scale): 0
wheat; [6]
  Wheat plant response rating: 2
wheat; [7]
  Plant response rating, Wheat: 0
cocklebur; [1]
  Cocklebur plant response rating: 0
cocklebur; [2]
  Cocklebur plant response rating: 0
cocklebur; [3]
  Plant response rating, Cocklebur: 0
cocklebur; [4]
  Cocklebur plant response rating: 0
cocklebur; [5]
  Cocklebur plant response rating: 0
cocklebur; Preemergence, Rate 250 g/ha
  Cocklebur plant response rating (0 to 10 scale): 0
cocklebur; [6]
  Cocklebur plant response rating: 0
cocklebur; [7]
  Plant response rating, Cocklebur: 0
